Measured values reported in ChEMBL document CHEMBL3217445, “Optimising pharmacokinetics of glucokinase activators with matched triplicate design sets the discovery of AZD3651 and AZD9485” (Medchemcomm, 2013).
In brackets after ≈: the same amount, converted by molar mass. Activity calls are given as the source filed them. The rule behind the calls is not given here.

Assays:
[1] = target: Voltage-gated inwardly rectifying potassium channel KCNH2 (Homo sapiens, UniProt Q12809); assay: Inhibition of human ERG by electrophysiological analysis
Sequence of Voltage-gated inwardly rectifying potassium channel KCNH2 (Q12809 whole entry): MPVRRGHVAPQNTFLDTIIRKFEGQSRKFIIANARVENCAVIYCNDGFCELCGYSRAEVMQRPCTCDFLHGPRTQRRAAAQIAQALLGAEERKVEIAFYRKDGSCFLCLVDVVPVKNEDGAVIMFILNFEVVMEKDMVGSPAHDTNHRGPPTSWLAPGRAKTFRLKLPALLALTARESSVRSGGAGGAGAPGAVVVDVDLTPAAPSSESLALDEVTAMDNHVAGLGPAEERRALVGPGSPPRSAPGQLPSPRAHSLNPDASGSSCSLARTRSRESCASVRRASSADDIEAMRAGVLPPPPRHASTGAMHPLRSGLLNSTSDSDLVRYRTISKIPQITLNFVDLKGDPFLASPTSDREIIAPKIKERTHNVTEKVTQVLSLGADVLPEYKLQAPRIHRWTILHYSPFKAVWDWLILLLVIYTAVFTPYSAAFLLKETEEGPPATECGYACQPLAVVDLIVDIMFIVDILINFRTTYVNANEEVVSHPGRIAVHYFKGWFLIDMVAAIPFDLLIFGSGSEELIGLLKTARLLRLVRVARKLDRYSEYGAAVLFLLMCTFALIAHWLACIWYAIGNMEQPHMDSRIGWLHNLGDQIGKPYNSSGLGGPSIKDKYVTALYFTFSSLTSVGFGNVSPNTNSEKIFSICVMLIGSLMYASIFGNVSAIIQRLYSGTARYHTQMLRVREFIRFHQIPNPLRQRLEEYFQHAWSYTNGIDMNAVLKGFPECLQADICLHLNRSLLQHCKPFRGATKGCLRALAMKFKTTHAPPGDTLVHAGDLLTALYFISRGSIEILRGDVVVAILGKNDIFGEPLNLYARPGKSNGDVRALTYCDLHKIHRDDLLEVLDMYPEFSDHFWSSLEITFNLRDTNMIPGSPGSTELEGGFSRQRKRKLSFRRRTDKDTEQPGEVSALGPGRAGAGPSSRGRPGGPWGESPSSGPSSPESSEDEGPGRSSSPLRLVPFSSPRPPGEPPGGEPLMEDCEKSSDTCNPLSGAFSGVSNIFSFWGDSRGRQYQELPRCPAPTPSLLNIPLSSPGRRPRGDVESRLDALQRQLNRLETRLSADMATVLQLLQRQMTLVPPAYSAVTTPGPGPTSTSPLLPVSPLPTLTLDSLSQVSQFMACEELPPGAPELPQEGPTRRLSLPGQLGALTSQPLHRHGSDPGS

[2] = Clearance in rat; assay type: ADME, organism-based; settings: in vivo
Rattus norvegicus [3] = organism: Rattus norvegicus; assay: Unbound clearance in rat; assay type: ADME, organism-based; settings: in vivo
Hexokinase-4 = target: T1, Hexokinase-4 (Homo sapiens, UniProt P35557); assay: Activation of glucokinase (unknown origin)
T1 sequence (P35557 whole entry): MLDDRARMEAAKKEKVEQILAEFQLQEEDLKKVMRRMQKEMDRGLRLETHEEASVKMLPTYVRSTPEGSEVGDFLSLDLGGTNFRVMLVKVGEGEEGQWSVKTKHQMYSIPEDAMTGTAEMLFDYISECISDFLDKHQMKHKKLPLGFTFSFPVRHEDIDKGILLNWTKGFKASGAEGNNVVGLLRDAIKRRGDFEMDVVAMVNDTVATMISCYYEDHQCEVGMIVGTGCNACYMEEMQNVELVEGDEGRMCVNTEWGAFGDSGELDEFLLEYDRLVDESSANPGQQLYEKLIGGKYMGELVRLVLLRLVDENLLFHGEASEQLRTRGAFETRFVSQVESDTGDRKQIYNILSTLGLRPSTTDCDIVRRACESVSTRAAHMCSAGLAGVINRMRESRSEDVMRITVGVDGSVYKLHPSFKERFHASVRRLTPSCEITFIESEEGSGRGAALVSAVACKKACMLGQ

[4] = Half life in rat plasma; assay type: ADME, cell-free
[5] = Octanol-buffer partition coefficient, log D of the compound at pH 7.4 after 30 mins by shake flask method; assay type: physicochemical
[6] = Half life at pH 6; assay type: physicochemical; settings: buffer
[7] = Aqueous solubility in PBS buffer at pH 7.4 after 24 hrs by LC-UV analysis; assay type: physicochemical
[8] = Clearance in dog; assay type: ADME, organism-based, Canis lupus familiaris; settings: in vivo
[9] = Apparent permeability from apical to basolateral side in MDCK cells; assay type: ADME, cell-based, Canis lupus familiaris; settings: dog
[10] = Oral bioavailability in rat; assay type: ADME, organism-based; settings: in vivo
Canis familiaris = organism: Canis familiaris; assay: Unbound clearance in dog; assay type: ADME, organism-based, Canis lupus familiaris; settings: in vivo
[11] = Volume of distribution at steady state in dog; assay type: ADME, organism-based, Canis lupus familiaris; settings: in vivo, read-out: Vdss
[12] = Volume of distribution at steady state in rat; assay type: ADME, organism-based; settings: in vivo, read-out: Vdss
Rattus norvegicus [13] = assay: Glucose lowering activity in Zucker rat at 3 mg/kg, po after 24 hrs; assay type: functional, organism-based; set-up: dose 3 mg/kg
[14] = Oral bioavailability in dog; assay type: ADME, organism-based, Canis lupus familiaris; settings: in vivo
Hepatocyte = assay: Intrinsic clearance in rat hepatocytes measured per […] cells; assay type: ADME, cell-based

Structure (SMILES) | IC50 [1] [nM] | clearance [2] [mL/min/kg] | CL free (Rattus norvegicus [3]) [mL/min/kg] | EC50 (Hexokinase-4; read-out: pEC50 (converted)) [nM] | half-life [4] [min] | logD at 0.5 h [5] | other results
O=C(Nc1ccc(Cl)cn1)[C@H](CN1CC(O)C1)Oc1ncnc2c1cnn2-c1ccccc1Cl | 10000 | 40 | 310 | 63.1 | 24 | 3.1 | –
Cc1ccc(NC(=O)[C@H](CCO)Oc2ncnc3c2cnn3-c2ncccc2Cl)nc1 | – | 11 | – | 200 | > 300 | 1.8 | –
CC(C)OC[C@H](Oc1ncnc2c1cnn2-c1ccccc1Cl)C(=O)Nc1ccc(Cl)cn1 | 15800 | 33 | 1500 | – | 19 | > 4.3 | –
N#Cc1cccc(Cl)c1-n1ncc2c(O[C@@H](CN3CC(O)C3)C(=O)Nc3ccc(F)cn3)ncnc21 | – | 32 | 260 | 200 | – | 2 | –
CC(C)OC[C@H](Oc1ncnc2c1cnn2-c1ncccc1Cl)C(=O)Nc1ccc(Cl)cn1 | – | 11 | 120 | – | 14 | – | half-life [6]: > 23 days
O=C(Nc1ccc(F)cn1)[C@H](CN1CC(O)C1)Oc1ncnc2c1cnn2-c1c(F)cccc1Cl | 25100 | 38 | 190 | 50.1 | – | 2.3 | –
O=C(Nc1ccc(F)cn1)[C@H](CN1CC(O)C1)Oc1ncnc2c1cnn2-c1ncccc1Cl | > 100000 | 21 | 31 | 316 | 62 | 1.3 | –
O=C(Nc1ccc(F)cn1)[C@H](COCCO)Oc1ncnc2c1cnn2-c1c(F)cccc1Cl | 31600 | 15 | 110 | 200 | – | 2.5 | –
C[C@@H](CO)OC[C@H](Oc1ncnc2c1cnn2-c1ncccc1Cl)C(=O)Nc1ccc(Cl)cn1 | – | – | – | 3160 | 12 | 2.4 | –
N#Cc1ccc(NC(=O)[C@H](CN2CC(O)C2)Oc2ncnc3c2cnn3-c2ccccc2Cl)nc1 | 10000 | 30 | 110 | 200 | – | 2.1 | –
O=C(Nc1ccc(F)cn1)[C@H](CN1CC(O)C1)Oc1ncnc2c1cnn2-c1c(Cl)cccc1Cl | – | 42 | 320 | – | – | 2.7 | solubility at 24 h [7]: 80 µM (≈ 41.5 µg/mL); clearance [8]: 30 mL/min/kg; Papp A→B [9]: 7.3 ×10⁻⁶ cm/s; EC50 (Hexokinase-4; read-out: EC50): 49 nM; bioavailability [10]: 28%; CL free (Canis familiaris): 210 mL/min/kg; Vd [11]: 1.1 L/kg; Vd [12]: 1.7 L/kg; Activity (Rattus norvegicus [13]): Active; bioavailability [14]: 32%
Cc1ccc(NC(=O)[C@H](COC(C)C)Oc2ncnc3c2cnn3-c2ncccc2Cl)nc1 | – | – | 390 | – | 17 | – | CLint (Hepatocyte): 66 µL/min/1e6 cells
CCOC[C@H](Oc1ncnc2c1cnn2-c1ncccc1Cl)C(=O)Nc1ccc(C)cn1 | – | – | 340 | – | 37 | – | CLint (Hepatocyte): 12 µL/min/1e6 cells
O=C(Nc1ccc(F)cn1)[C@H](CN1CC(O)C1)Oc1ncnc2c1cnn2-c1ccccc1Cl | 36000 | 31 | 90 | – | – | 2.3 | solubility at 24 h [7]: > 750 µM; clearance [8]: 51 mL/min/kg; Papp A→B [9]: 9.8 ×10⁻⁶ cm/s; EC50 (Hexokinase-4; read-out: EC50): 78 nM; bioavailability [10]: 75%; CL free (Canis familiaris): 170 mL/min/kg; Vd [11]: 1.5 L/kg; Vd [12]: 1.5 L/kg; Activity (Rattus norvegicus [13]): Active; bioavailability [14]: 12%
O=C(Nc1ccc(F)cn1)[C@H](COCCO)Oc1ncnc2c1cnn2-c1c(Cl)cccc1Cl | 20000 | 15 | 120 | 126 | – | 2.7 | –
O=C(Nc1ccc(Cl)cn1)[C@H](CN1CC(O)C1)Oc1ncnc2c1cnn2-c1ncccc1Cl | 50100 | 38 | 140 | 316 | 45 | 2 | –
Cc1ccc(NC(=O)[C@H](COC2CCC2)Oc2ncnc3c2cnn3-c2ncccc2Cl)nc1 | – | – | 1500 | – | 10 | – | CLint (Hepatocyte): 130 µL/min/1e6 cells
C[C@@H](CO)OC[C@H](Oc1ncnc2c1cnn2-c1ncccc1Cl)C(=O)Nc1ccc(F)cn1 | > 100000 | 38 | 76 | 2510 | 1 | 1.7 | –

Structure (SMILES) | IC50 [1] [nM] | clearance [2] [mL/min/kg] | CL free (Rattus norvegicus [3]) [mL/min/kg] | EC50 (Hexokinase-4; read-out: pEC50 (converted)) [nM] | half-life [4] [min] | logD at 0.5 h [5] | other results
N#Cc1ccc(NC(=O)[C@H](COCCO)Oc2ncnc3c2cnn3-c2ncccc2Cl)nc1 | – | 13 | 28 | 1580 | 115 | – | –
O=C(Nc1ccccn1)[C@H](CN1CC(O)C1)Oc1ncnc2c1cnn2-c1c(F)cccc1Cl | – | 81 | 250 | – | – | 2.3 | –
CC(C)OC[C@H](Oc1ncnc2c1cnn2-c1ncccc1Cl)C(=O)Nc1ccc(C#N)cn1 | – | 21 | 81 | – | 22 | – | half-life [6]: > 23 days
C[C@H](CO)OC[C@H](Oc1ncnc2c1cnn2-c1ncccc1Cl)C(=O)Nc1ccc(F)cn1 | > 100000 | 43 | 98 | 794 | 16 | 1.7 | half-life [6]: > 23 days
O=C(Nc1ccccn1)[C@H](CN1CC(O)C1)Oc1ncnc2c1cnn2-c1ccccc1Cl | > 100000 | 170 | 420 | 200 | – | 2 | –
N#Cc1ccc(NC(=O)[C@H](CN2CC(O)C2)Oc2ncnc3c2cnn3-c2c(Cl)cccc2C#N)nc1 | 7940 | – | – | 501 | – | 1.9 | –
N#Cc1cccc(Cl)c1-n1ncc2c(O[C@@H](COCCO)C(=O)Nc3ccc(F)cn3)ncnc21 | 63100 | 19 | 140 | 501 | – | 2 | –
O=C(Nc1ccc(F)cn1)[C@H](COCCO)Oc1ncnc2c1cnn2-c1ccccc1Cl | 39800 | 45 | 220 | 631 | – | 2.4 | –
CC(C)OC[C@H](Oc1ncnc2c1cnn2-c1ncccc1Cl)C(=O)Nc1ccc(F)cn1 | – | 130 | 600 | – | 7 | – | half-life [6]: > 23 days
C[C@@H](CO)OC[C@H](Oc1ncnc2c1cnn2-c1ncccc1Cl)C(=O)Nc1ccc(C#N)cn1 | – | – | – | > 100000 | 115 | 1.5 | –
N#Cc1ccc(NC(=O)[C@H](CN2CC(O)C2)Oc2ncnc3c2cnn3-c2c(Cl)cccc2Cl)nc1 | – | 64 | 240 | 251 | – | 2.6 | –
O=C(Nc1ccc(Cl)cn1)[C@H](COCCO)Oc1ncnc2c1cnn2-c1ncccc1Cl | 50100 | 15 | 70 | 501 | 31 | 2.1 | –
C[C@H](CO)OC[C@H](Oc1ncnc2c1cnn2-c1ncccc1Cl)C(=O)Nc1ccc(C#N)cn1 | – | 14 | 29 | – | 106 | 1.5 | half-life [6]: > 23 days
Cc1cnc(NC(=O)[C@H](CO[C@H](C)CO)Oc2ncnc3c2cnn3-c2c(Cl)cccc2C#N)cn1 | > 100000 | 18 | 39 | – | – | 1.9 | solubility at 24 h [7]: > 50 µM; clearance [8]: 18 mL/min/kg; Papp A→B [9]: 7.8 ×10⁻⁶ cm/s; EC50 (Hexokinase-4; read-out: EC50): 78 nM; bioavailability [10]: 100%; CL free (Canis familiaris): 49 mL/min/kg; Vd [11]: 0.9 L/kg; Vd [12]: 1.5 L/kg; bioavailability [14]: 43%
C[C@H](CO)OC[C@H](Oc1ncnc2c1cnn2-c1ncccc1Cl)C(=O)Nc1ccc(Cl)cn1 | – | 50 | 190 | 398 | 19 | 2.3 | half-life [6]: > 23 days
COC[C@H](Oc1ncnc2c1cnn2-c1ncccc1Cl)C(=O)Nc1ccc(C)cn1 | – | – | – | – | > 300 | – | CLint (Hepatocyte): < 2 µL/min/1e6 cells
O=C(Nc1ccc(Cl)cn1)[C@H](COCCO)Oc1ncnc2c1cnn2-c1ccccc1Cl | – | 11 | 120 | 200 | 86 | 3.1 | –
Cc1cnc(NC(=O)[C@H](CN2CC(O)C2)Oc2ncnc3c2cnn3-c2c(Cl)cccc2Cl)cn1 | 62000 | 225 | 74 | – | – | 2.3 | solubility at 24 h [7]: > 750 µM; clearance [8]: 18 mL/min/kg; Papp A→B [9]: 3.5 ×10⁻⁶ cm/s; EC50 (Hexokinase-4; read-out: EC50): 96 nM; bioavailability [10]: 38%; CL free (Canis familiaris): 60 mL/min/kg; Vd [11]: 1.1 L/kg; Vd [12]: 1.2 L/kg; bioavailability [14]: 87%
